Assay results as given in patent publication US20170065564A1, “BIS-CYCLIC GUANIDINE COMPOUND COMPOSITIONS, METHODS OF USE AND TREATMENT THEREOF” (University of South Florida, priority 2014, published 2017).

How the values were obtained:
Staphylococcus aureus = experiment: MIC micro broth dilution assay; format: cell-based; parameters: key to stacked score activity, 100/MIC, S: stacked score = 100/MIC; conditions: for stacked score activity, 100/MIC, S: S. aureus
How it was run: (§1)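 Multidrug-resistant clinical ESKAPE isolates were grown overnight (Gram-positives in TSB, Gram-negatives in LB), diluted 1:1,000 and exposed to decreasing compound concentrations in DMF (≤2.0% DMF).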

Klebsiella pneumoniae = experiment: MIC micro broth dilution assay; format: cell-based; parameters: key to stacked score activity, 100/MIC, K: stacked score = 100/MIC; conditions: for stacked score activity, 100/MIC, K: K. pneumoniae; for concentration inhibiting 70% of strains / concentration inhibiting 90% of isolates: panel of K. pneumoniae clinical isolates
How it was run: as §1

Pseudomonas aeruginosa = experiment: MIC micro broth dilution assay; format: cell-based; conditions: for concentration inhibiting 90% of isolates: panel of P. aeruginosa clinical isolates
Method: For this study we used a representative panel of multi-drug resistant clinical ESKAPE pathogen isolates (Supplemental Table S6).^42 43 3a, 44 45 Gram-positive organisms were grown in tryptic soy broth media (TSB), whilst Gram-negative organisms were grown in lysogeny Broth (LB), as described by us previously. ^43 MIC and MBC determination assays.
Broth cultures of ESKAPE strains were grown overnight before being diluted 1 in 1,000 in fresh media. Sterile 96-well plates were loaded with culture and compounds (in DMF) were added at decreasing concentrations to equal a total volume of 200 μl per well. Care was taken to not add more than 2.0% DMF to any well. Plates were then incubated at 37° C., and MICs determined after 24 hours by visual inspection for a lack of turbidity in wells. All assays were performed in triplicate with identical results obtained. For both the scaffold ranking and positional scanning samples, relative broad-spectrum activity was determined via stacked scores: […]

ESKAPE pathogens = experiment: MIC micro broth dilution assay, statements and stacked scores over all ESKAPE pathogens; format: cell-based; conditions: for pathogens against which the compound showed activity at 4 ug/ml / pathogens against which the compound showed activity at 5 ug/ml / pathogens against which the compound showed activity at 10 ug/ml / pathogens against which the compound showed activity at 25 ug/ml: letters E,S,K,A,P,E = ESKAPE pathogens, — = none
How it was run: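 Overnight cultures of multidrug-resistant clinical isolates, diluted 1 in 1,000 (Gram-positives in TSB, Gram-negatives in LB), were exposed to decreasing compound concentrations in DMF (≤2.0%) at 37° C. MIC was read visually as no turbidity after 24 hours, in triplicate. Broad-spectrum activity was ranked by stacked scores.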

human A549 cells = experiment: Cytotoxicity assay (MTT); format: cell-based; conditions: for IC50: MTT, 48 hours
Method: Cytotoxicity assays were performed using human A549 cells (adenocarcinomic human alveolar epithelial cells), as described by us previously.^44 Briefly, cells were cultured in F-12K Nutrient mixture (Kaighn's Modification) media containing L-glutamine, supplemented with 10% fetal bovine serum and 1% penicillin-streptomycin for 3 days at 37° and 5% CO2. Cells were then diluted to 1.0×10^5 ml^−1 using F-12K supplemented media, and added to 96 well tissue culture plates at a volume of 100 μl. Plates were incubated for 24 hours at 37° C. and 5% CO2, allowing the cells to adhere to the plastic. […] Plates were then incubated for 48 hours at 37° C. and 5% CO2. After 48 hours the media was removed, and new media added containing MTT (3-(4, 5-dimethylthiazol-2-yl)-2, 5-diphenyltetrazolium bromide), followed by incubation for four hours at 37° C. and 5% CO2. After 4 h, 50 μl of media was removed, replaced with DMSO and incubated for ten minutes at 37° C. in order to solubilize any formazan produced. A Biotek plate reader was used to measure the absorbance of formazan production at […], and IC50 values were determined for each of the five compounds. Front runners were solvated in 45% w/v (2-hydroxypropyl)-β-cyclodextrin in water for these studies; which was also used alone as a negative control. IC50 values were determined for each compound by comparison to vehicle only controls, to assess toxicity to human cells.

K. pneumoniae = experiment: Resistance serial passage assay; format: cell-based, Klebsiella pneumoniae; conditions: 8 passages, concentration doubled each day
Method: (§2) ESKAPE pathogens were grown overnight in liquid media at 37° C. These cultures were then diluted 1:100 in fresh media, and seeded into a 96-well plate. Lead bis-cyclic guanidines or control agents were added to respective wells at half MIC concentrations. Plates were then incubated for 24 hours at 37° C., with bacteria removed from these cultures on the following day, to inoculate fresh media (1:100 dilution) containing compounds at a 2-fold higher concentrations. These were then grown overnight, and the procedure repeated for a total of eight days. […] Each experiment was performed in triplicate, yielding identical results.

A. baumannii = experiment: Resistance serial passage assay; format: cell-based, Acinetobacter baumannii; conditions: 8 passages, concentration doubled each day
Method: as §2

E. cloacae = format: cell-based, Enterobacter cloacae; conditions: 8 passages, concentration doubled each day
Method: ESKAPE pathogens were grown overnight in liquid media at 37° C. These cultures were then diluted 1:100 in fresh media, and seeded into a 96-well plate. Lead bis-cyclic guanidines or control agents were added to respective wells at half MIC concentrations. […] These were then grown overnight, and the procedure repeated for a total of eight days.

CCCC[C@H]1CN(CCCC[C@H]2CNC(=N)N2CCc2cccc(C(F)(F)F)c2)C(=N)N1CCCCC1CCCCC1 [Compound 2, (S)-4-butyl-3-(4-cyclohexylbutyl)-1-(4-((S)-2-imino-3-(3-(trifluoromethyl)phenethyl)imidazolidin-4-yl)butyl)imidazolidin-2-imine]
7 µM: MIC (Pseudomonas aeruginosa; Pseudomonas aeruginosa, P. aeruginosa isolate 1418)
ESAP: pathogens against which the compound showed activity at 4 ug/ml (ESKAPE pathogens)
5 µM: MIC (Klebsiella pneumoniae; Klebsiella pneumoniae, K. pneumoniae isolate 1440) | concentration inhibiting 90% of isolates (Klebsiella pneumoniae) | concentration inhibiting 90% of isolates (Pseudomonas aeruginosa)
8 fold: increase in MIC after serial passage (K. pneumoniae) | increase in MIC after serial passage (A. baumannii) | increase in MIC after serial passage (E. cloacae)
1.52 µM: MIC (Staphylococcus aureus; Staphylococcus aureus, purified compound, Table 1) | MIC (Klebsiella pneumoniae; Klebsiella pneumoniae, purified compound, Table 1) | MIC (Pseudomonas aeruginosa; Pseudomonas aeruginosa, purified compound, Table 1)
2 µM: MIC (Staphylococcus aureus; Staphylococcus aureus, S. aureus isolate 542) | MIC (Staphylococcus aureus; Staphylococcus aureus, S. aureus isolate 626) | MIC (Staphylococcus aureus; Staphylococcus aureus, S. aureus isolate 635) | MIC (Staphylococcus aureus; Staphylococcus aureus, S. aureus isolate 648) | MIC (Staphylococcus aureus; Staphylococcus aureus, S. aureus isolate 690) | MIC (Staphylococcus aureus; Staphylococcus aureus, S. aureus isolate 693) | MIC (Staphylococcus aureus; Staphylococcus aureus, S. aureus isolate 715) | MIC (Staphylococcus aureus; Staphylococcus aureus, S. aureus isolate 728) | MIC (Staphylococcus aureus; Staphylococcus aureus, S. aureus isolate 834) | MIC (Staphylococcus aureus; Staphylococcus aureus, S. aureus isolate 1043) | MIC (Staphylococcus aureus; Staphylococcus aureus, S. aureus isolate 1049) | MIC (Klebsiella pneumoniae; Klebsiella pneumoniae, K. pneumoniae isolate 1408) | MIC (Klebsiella pneumoniae; Klebsiella pneumoniae, K. pneumoniae isolate 1410) | MIC (Klebsiella pneumoniae; Klebsiella pneumoniae, K. pneumoniae isolate 1411) | MIC (Klebsiella pneumoniae; Klebsiella pneumoniae, K. pneumoniae isolate 1412) | MIC (Klebsiella pneumoniae; Klebsiella pneumoniae, K. pneumoniae isolate 1413) | MIC (Klebsiella pneumoniae; Klebsiella pneumoniae, K. pneumoniae isolate 1433) | MIC (Klebsiella pneumoniae; Klebsiella pneumoniae, K. pneumoniae isolate 1441) | concentration inhibiting 70% of strains (Klebsiella pneumoniae) | MIC (Pseudomonas aeruginosa; Pseudomonas aeruginosa, P. aeruginosa isolate 1416) | MIC (Pseudomonas aeruginosa; Pseudomonas aeruginosa, P. aeruginosa isolate 1423)
ESKAPE: pathogens against which the compound showed activity at 5 ug/ml (ESKAPE pathogens) | pathogens against which the compound showed activity at 10 ug/ml (ESKAPE pathogens) | pathogens against which the compound showed activity at 25 ug/ml (ESKAPE pathogens)
20: stacked score activity, 100/MIC, K (Klebsiella pneumoniae)
3 µM: MIC (Klebsiella pneumoniae; Klebsiella pneumoniae, K. pneumoniae isolate 1409) | MIC (Klebsiella pneumoniae; Klebsiella pneumoniae, K. pneumoniae isolate 1434) | MIC (Pseudomonas aeruginosa; Pseudomonas aeruginosa, P. aeruginosa isolate 1414) | MIC (Pseudomonas aeruginosa; Pseudomonas aeruginosa, P. aeruginosa isolate 1415) | MIC (Pseudomonas aeruginosa; Pseudomonas aeruginosa, P. aeruginosa isolate 1417) | MIC (Pseudomonas aeruginosa; Pseudomonas aeruginosa, P. aeruginosa isolate 1419) | MIC (Pseudomonas aeruginosa; Pseudomonas aeruginosa, P. aeruginosa isolate 1420) | MIC (Pseudomonas aeruginosa; Pseudomonas aeruginosa, P. aeruginosa isolate 1421) | MIC (Pseudomonas aeruginosa; Pseudomonas aeruginosa, P. aeruginosa isolate 1422)
33: stacked score activity, 100/MIC, S (Staphylococcus aureus)
125 µM: IC50 (human A549 cells; Homo sapiens, A549)

CCCCCCCN1C(=N)N(CCCC[C@H]2CNC(=N)N2CCC23CC4CC(CC(C4)C2)C3)C[C@@H]1CCCC [Compound 19]
146 µM: IC50 (human A549 cells)
> 97%: A549 cell recovery compared to vehicle only controls (human A549 cells; concentrations up to 45 μM)
3.0 µM: MIC (Klebsiella pneumoniae; K. pneumoniae isolate 1409) | MIC (Klebsiella pneumoniae; K. pneumoniae isolate 1410) | MIC (Klebsiella pneumoniae; K. pneumoniae isolate 1412) | MIC (Klebsiella pneumoniae; K. pneumoniae isolate 1413) | MIC (Klebsiella pneumoniae; K. pneumoniae isolate 1440) | MIC (Pseudomonas aeruginosa; P. aeruginosa isolate 1416) | MIC (Pseudomonas aeruginosa; P. aeruginosa isolate 1417) | MIC (Pseudomonas aeruginosa; P. aeruginosa isolate 1419)
10 µM: concentration inhibiting 90% of isolates (Pseudomonas aeruginosa)
7.0 µM: MIC (Pseudomonas aeruginosa; P. aeruginosa isolate 1418)
5 µM: concentration inhibiting 90% of isolates (Klebsiella pneumoniae)
> 70%: A549 cell recovery compared to vehicle only controls (human A549 cells; 225 μM (highest concentration tested))
ESAP: pathogens against which the compound showed activity at 4 ug/ml (ESKAPE pathogens)
2.0 µM: MIC (Staphylococcus aureus; S. aureus isolate 542) | MIC (Staphylococcus aureus; S. aureus isolate 626) | MIC (Staphylococcus aureus; S. aureus isolate 635) | MIC (Staphylococcus aureus; S. aureus isolate 648) | MIC (Staphylococcus aureus; S. aureus isolate 690) | MIC (Staphylococcus aureus; S. aureus isolate 693) | MIC (Staphylococcus aureus; S. aureus isolate 715) | MIC (Staphylococcus aureus; S. aureus isolate 728) | MIC (Staphylococcus aureus; S. aureus isolate 834) | MIC (Staphylococcus aureus; S. aureus isolate 1043) | MIC (Staphylococcus aureus; S. aureus isolate 1049) | MIC (Klebsiella pneumoniae; K. pneumoniae isolate 1408) | MIC (Klebsiella pneumoniae; K. pneumoniae isolate 1411) | MIC (Klebsiella pneumoniae; K. pneumoniae isolate 1433) | MIC (Klebsiella pneumoniae; K. pneumoniae isolate 1441) | MIC (Pseudomonas aeruginosa; P. aeruginosa isolate 1423)
8 fold: increase in MIC after serial passage (K. pneumoniae) | increase in MIC after serial passage (A. baumannii) | increase in MIC after serial passage (E. cloacae)
33: stacked score activity, 100/MIC, S (Staphylococcus aureus)
2 µM: concentration inhibiting 70% of strains (Klebsiella pneumoniae)
156: stacked score Total (ESKAPE pathogens; stacked score over all ESKAPE pathogens (details in Table S4b)) | Total stacked score (ESKAPE pathogens; sum over all six ESKAPE pathogens)
5.0 µM: MIC (Klebsiella pneumoniae; K. pneumoniae isolate 1434) | MIC (Pseudomonas aeruginosa; P. aeruginosa isolate 1414) | MIC (Pseudomonas aeruginosa; P. aeruginosa isolate 1415) | MIC (Pseudomonas aeruginosa; P. aeruginosa isolate 1420) | MIC (Pseudomonas aeruginosa; P. aeruginosa isolate 1421) | MIC (Pseudomonas aeruginosa; P. aeruginosa isolate 1422)
≥ 26%: A549 cell recovery compared to vehicle only controls (human A549 cells; above 45 μM, at concentrations up to 225 μM)
ESKAPE: pathogens against which the compound showed activity at 5 ug/ml (ESKAPE pathogens) | pathogens against which the compound showed activity at 10 ug/ml (ESKAPE pathogens) | pathogens against which the compound showed activity at 25 ug/ml (ESKAPE pathogens)
1.66 µM: MIC (Staphylococcus aureus; purified compound, Table 1) | MIC (Klebsiella pneumoniae; purified compound, Table 1) | MIC (Pseudomonas aeruginosa; purified compound, Table 1)
20: stacked score activity, 100/MIC, K (Klebsiella pneumoniae)
